Among the data in patent US9549917B2, “Heterocyclic-substituted benzofuran derivatives and methods of use thereof for the treatment of viral diseases” (priority 2011, dated 2017) are IC50 values, retold here.

The test system of test [1] is HCV replicon genotype 1a. Description: HCV replicon assay, genotype 1a (cell ELISA for NS3/4A). It is filed as cell-based. The settings on record: Hepatitis C virus, 96 h, read-out: 1a IC50 (nM). The procedure:
(§1) Measurement of inhibition by compounds was performed using the HCV replicon system. Several different replicons encoding different HCV genotypes or mutations were used. In addition, potency measurements were made using different formats of the replicon assay, including different ways of measurements and different plating formats. See Jan M. Vrolijk et al., A replicons-based bioassay for the measurement of interferons in patients with chronic hepatitis C, 110 J. V[…] 201 (2003); Steven S. Carroll et al., Inhibition of Hepatitis C Virus RNA Replication by 2′-Modified Nucleoside Analogs, 278(14) J. BIOLOGICAL CHEMISTRY 11979 (2003). However, the underlying principles are common to all of these determinations, and are outlined below.
(§2) Stable neomycin phosphotransferase encoding replicons-harboring cell lines were used, so all cell lines were maintained under G418 selection prior to the assay. Potency was determined using a cell ELISA assay with an antibody to the replicons encoded NS3/4a protease. See Caterina Trozzi et al., In Vitro Selection and Characterization of Hepatitis C Virus Serine Protease Variants Resistant to an Active-Site Peptide Inhibitor, 77(6) J. Virol. 3669 (2003). To initiate an assay, replicon cells were plated in the presence of a dilution series of test compound in the absence of G418. Typically, the assays were performed in a 96-well plate formate for manual operation, or a 384-well plate format for automated assay. Replicon cells and compound were incubated for 96 hours. At the end of the assay, cells were washed free of media and compound, and the cells were then lysed. RNA was quantified indirectly through detection of replicon-encoded NS3/4A protein levels, through an ELISA-based assay with an antibody specific for NS3/4A. IC50 determinations were calculated as a percentage of a DMSO control by fitting the data to a four-parameter fit function and the data obtained is provided in the table below.
(§3) Data for selected compounds of the present invention was obtained for genotypes 1a and 1b using this method and is provided in the table below: […]

The test system of test [2] is HCV replicon genotype 1b. Description: HCV replicon assay, genotype 1b (cell ELISA for NS3/4A). It is filed as cell-based. The note with it: Hepatitis C virus, 96 h, read-out: 1b IC50 (nM). As to the method: as §1, §2, §3
Background: Replicon systems follow genome replication, usually without infectious particles.

On to `CNC(=O)c1c(-c2ccc(F)cc2)oc2cc(N(C)S(C)(=O)=O)c(-c3cnc(OC)c(-c4cc5cccc(F)c5[nH]4)n3)cc12` [Compound 226], for which the IC50 (in general, the concentration needed to halve the response being measured) in test [1] worked out at 3.4 nM; in test [2] it was 7.2 nM.
Taken in the same sequence, the figures for `CNC(=O)c1c(-c2ccc(F)cc2)oc2cc(N(C)S(C)(=O)=O)c(-c3ccc(O)c(C4Cc5c(F)cccc5N4)n3)cc12` (stereo not drawn) [Compound 257, 5-(6-(4-fluoroindolin-2-yl)-5-hydroxypyridin-2-yl)-2-(4-fluorophenyl)-N-methyl-6-(N-methylmethylsulfonamido)benzofuran-3-carboxamide] were 13 nM and 10 nM.
In the same order, the values of `CNC(=O)c1c(-c2ccc(F)cc2)oc2cc(N(CC(F)F)S(C)(=O)=O)c(-c3cc(-c4nc5ncccc5o4)ccn3)cc12` [Compound 170] are 27 nM and 5.1 nM.
With `CNC(=O)c1c(-c2ccc(F)cc2)oc2cc(N(C)S(C)(=O)=O)c(-c3ccc(-c4nc5c(F)cccc5o4)s3)cc12` [Compound 157], the values for the IC50 in test [1] and in test [2] were 0.9 nM and 1.5 nM, respectively.
Taken in the same sequence, the figures for `CNC(=O)c1c(-c2ccc(F)cc2)oc2cc(N(C)S(C)(=O)=O)c(-c3cncc(-c4nc5c(s4)CCCC5)c3)cc12` [Compound 82] were 0.8 nM and 1.1 nM.
As to `CNC(=O)c1c(-c2ccc(F)cc2)oc2cc(N(CCCF)S(C)(=O)=O)c(-c3cncc(-c4cc5ccccc5[nH]4)c3)cc12` [Compound 244], the IC50 in test [1] was determined as 2.7 nM; in test [2] it was 4.7 nM.
In the same order, the values of `CNC(=O)c1c(-c2ccc(F)cc2)oc2cc(N(C)S(C)(=O)=O)c(-c3cc(-c4nc5c(o4)CCCC5(F)F)ccn3)cc12` [Compound 95] are 0.9 nM and 1.1 nM.
In the same order, the values of `CNC(=O)c1c(-c2ccc(F)cc2)oc2cc(N(C)S(C)(=O)=O)c(-c3cnnc(-c4cc5c(C#N)cccc5n4C)c3)cc12` [Compound 273] are 0.3 nM and 0.2 nM.
Taken in the same sequence, the figures for `CNC(=O)c1c(-c2ccc(F)cc2)oc2cc(N(C)S(C)(=O)=O)c(-c3cc(-c4cc5c(F)cccc5[nH]4)ncn3)cc12` [Compound 119] were 0.7 nM and 1.5 nM.
Consider `CNC(=O)c1c(-c2ccc(F)cc2)oc2cc(N(C)S(C)(=O)=O)c(-c3cnnc(-c4cc5cccnc5n4C)c3)cc12` [Compound 284], for which the IC50 in test [1] came to 6 nM; in test [2], 2.7 nM.
In the case of `CNC(=O)c1c(-c2ccc(F)cc2)oc2cc(N(C)S(C)(=O)=O)c(-c3cc(-c4cc5ccccc5[nH]4)nc(C#N)n3)cc12` [Compound 151], the IC50 in test [1] came to 7.7 nM; in test [2], 3.7 nM.
For `CNC(=O)c1c(-c2ccc(F)cc2)nn2cc(N(C)S(C)(=O)=O)c(-c3nccc(-c4cc5ccccc5[nH]4)n3)cc12` [Compound 210], the IC50 in test [1] was 11 nM; in test [2] it was 4.7 nM.
Regarding `CNC(=O)c1c(-c2ccc(F)cc2)oc2cc(N(C)S(C)(=O)=O)c(-c3cc(-c4cc5ccccc5[nH]4)ncn3)cc12` [Compound 108, 5-(6-(1H-indol-2-yl)pyrimidin-4-yl)-2-(4-fluorophenyl)-N-methyl-6-(N-methylmethylsulfonamido)benzofuran-3-carboxamide], the figures for the IC50 in test [1] and in test [2] were 0.7 nM and 1.2 nM, respectively.
Taken in the same sequence, the figures for `CNC(=O)c1c(-c2ccc(F)cc2)oc2cc(N(C)S(C)(=O)=O)c(-c3cc(-c4cc5c(F)cccc5[nH]4)c(OC)nn3)cc12` [Compound 218] were 4.2 nM and 9.2 nM.
Taken in the same sequence, the figures for `CNC(=O)c1c(-c2ccc(F)cc2)oc2cc(N(C)S(C)(=O)=O)c(-c3nc(-c4cc5c(F)cccc5[nH]4)ns3)cc12` [Compound 258] were 2.6 nM and 2.5 nM.
In the same order, the values of `CNC(=O)c1c(-c2ccc(F)cc2)oc2cc(N(C)S(C)(=O)=O)c(-c3cc(-c4cc5c(F)cccc5n4CCOC)cnn3)cc12` [Compound 278] are 37 nM and 14 nM.
On to `CNC(=O)c1c(-c2ccc(F)cc2)oc2cc(N(C)S(C)(=O)=O)c(-c3cc(-c4nc5ccccc5o4)cnn3)cc12` [Compound 271], for which the IC50 in test [1] amounted to 14 nM; in test [2], 10 nM.
Taken in the same sequence, the figures for `CNC(=O)c1c(-c2ccc(F)cc2)oc2cc(N(C)S(C)(=O)=O)c(-c3cnnc(-n4cc5c(F)cccc5n4)c3)cc12` [Compound 265] were 4.5 nM and 4.1 nM.
